According to US12319664B2, “Herbicidally active 3-phenylisoxazoline-5-carboxamides of cyclopentenylcarboxylic acid derivatives” (Bayer Aktiengesellschaft, priority 2018, dated 2025):

How the values were obtained:
ALOMY = assay: Post-emergence herbicidal action against ALOMY; format: in vivo, Alopecurus myosuroides; details: application rate 80 g/ha, rated visually after about 3 weeks
How it was run: (§1)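 Percent herbicidal activity was judged visually relative to untreated controls approximately 3 weeks after spraying. Treatment occurred at the one-leaf stage on greenhouse-grown plants in sandy loam.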

AVEFA = assay: Post-emergence herbicidal action against AVEFA; format: in vivo, Avena fatua; details: application rate 80 g/ha, rated visually after about 3 weeks
How it was run: as §1

ECHCG = assay: Post-emergence herbicidal action against ECHCG; format: in vivo, Echinochloa crus-galli; details: application rate 80 g/ha, rated visually after about 3 weeks
How it was run: as §1

LOLRI = assay: Post-emergence herbicidal action against LOLRI; format: in vivo, Lolium rigidum; details: application rate 80 g/ha, rated visually after about 3 weeks
How it was run: as §1

SETVI = assay: Post-emergence herbicidal action against SETVI; format: in vivo, Setaria viridis; details: application rate 80 g/ha, rated visually after about 3 weeks
How it was run: as §1

ABUTH = assay: Post-emergence herbicidal action against ABUTH; format: in vivo, Abutilon theophrasti; details: application rate 80 g/ha, rated visually about 3 weeks after treatment
How it was run: as §1

AMARE = assay: Post-emergence herbicidal action against AMARE; format: in vivo, Amaranthus retroflexus; details: application rate 80 g/ha, rated visually about 3 weeks after treatment
How it was run: as §1

PHBPU = assay: Post-emergence herbicidal action against PHBPU; format: in vivo, Pharbitis purpurea; details: application rate 80 g/ha, rated visually about 3 weeks after treatment
Protocol: (§2) [table] 2. Post-emergence herbicidal action against harmful plants and crop plant compatibility Seeds of monocotyledonous and dicotyledonous weeds and crop plants are placed in sandy loam in plastic or wood-fibre pots, covered with soil and cultivated in a greenhouse under controlled growth conditions. 2 to 3 weeks after sowing, the test plants are treated at the one-leaf stage. The compounds of the invention, formulated in the form of wettable powders (WP) or as emulsion concentrates (EC), are then sprayed onto the green parts of the plants as aqueous suspension or emulsion with addition of 0.5% additive at a water application rate of 600 l/ha (converted). After the test plants have been kept in the greenhouse under optimum growth conditions for about 3 weeks, the activity of the preparations is rated visually in comparison to untreated controls. For example, 100% activity=the plants have died, 0% activity=like control plants.

STEME = assay: Post-emergence herbicidal action against STEME; format: in vivo, Stellaria media; details: application rate 80 g/ha, rated visually about 3 weeks after treatment
How it was run: as §1

VIOTR = assay: Post-emergence herbicidal action against VIOTR; format: in vivo, Viola tricolor; details: application rate 80 g/ha, rated visually about 3 weeks after treatment
Protocol: as §2

VERPE = assay: Post-emergence herbicidal action against VERPE; format: in vivo, Veronica persica; details: application rate 80 g/ha
How it was run: as §1

HORMU = assay: Post-emergence herbicidal action against HORMU; format: in vivo, Hordeum murinum; details: application rate 80 g/ha
How it was run: as §1

POLCO = assay: Post-emergence herbicidal action against POLCO; format: in vivo, Polygonum convolvulus; details: application rate 80 g/ha, rated visually about 3 weeks after treatment
How it was run: as §1

| Compound | Herbicidal action against [%] ALOMY (ALOMY) | Herbicidal action against [%] AVEFA (AVEFA) | Herbicidal action against [%] ECHCG (ECHCG) | Herbicidal action against [%] LOLRI (LOLRI) | Herbicidal action against [%] SETVI (SETVI) | Herbicidal action against [%] ABUTH (ABUTH) | Herbicidal action against [%] AMARE (AMARE) | Herbicidal action against [%] PHBPU (PHBPU) | Herbicidal action against [%] STEME (STEME) | Herbicidal action against [%] VIOTR (VIOTR) | Herbicidal action against [%] VERPE (VERPE) | Herbicidal action against [%] HORMU (HORMU) | Herbicidal action against [%] POLCO (POLCO) |
| --- | --- | --- | --- | --- | --- | --- | --- | --- | --- | --- | --- | --- | --- |
| COc1cc(OC)cc(C2=NOC(C(=O)NC3C=CC(C(=O)OCC(F)(F)F)C3)(C(F)(F)F)C2)c1 (mixture of isomers) [Example I-052] | 100% | 100% | 80% | 100% | 90% | 90% | 90% | 80% | 80% | 80% | 80% | 100% | – |
| Cc1cc(C)cc(C2=NOC(C(=O)NC3C=CC(C(=O)OCC(F)(F)F)C3)(C(F)(F)F)C2)c1 (mixture of isomers) [Example I-057] | 90% | – | 80% | 90% | – | – | – | – | 80% | 80% | 80% | 80% | 80% |
| C=CC1(C(=O)NC2C=CC(C(=O)OC(C)(C)C)C2)CC(c2cc(F)cc(F)c2)=NO1 (mixture of isomers) [Example I-060] | 90% | 90% | 90% | – | – | – | 80% | 80% | – | 80% | – | 90% | – |
| CCOC(=O)C1C=CC(NC(=O)C2(C(F)(F)F)CC(c3cccc(C#N)c3)=NO2)C1 (mixture of isomers) [Example I-072] | 90% | 100% | 90% | 90% | 80% | 80% | 80% | – | 80% | 80% | 80% | 90% | 90% |
| COC(=O)C1C=CC(NC(=O)C2(C)CC(c3cccc(C#N)c3)=NO2)C1 (mixture of isomers) [Example I-080] | 90% | 100% | 90% | 90% | 80% | – | 90% | 90% | 90% | 80% | 90% | 90% | 90% |
| N#Cc1cc(F)cc(C2=NOC(C(=O)NC3C=CC(C(=O)OCCCl)C3)(C(F)(F)F)C2)c1 (mixture of isomers) [Example I-089] | 100% | 100% | 90% | 100% | 80% | 90% | 90% | – | 90% | 90% | 90% | 100% | 90% |
| CC(C)(C#N)NC(=O)C1C=CC(NC(=O)C2(C)CC(c3cc(F)cc(F)c3)=NO2)C1 (mixture of isomers) [II-10] | 90% | 90% | 90% | 90% | – | – | 80% | 90% | 90% | 90% | 80% | – | 90% |
| O=C(C1C=CC(NC(=O)C2(C(F)(F)F)CC(c3cc(F)cc(F)c3)=NO2)C1)N1CCCCO1 (mixture of isomers) [II-31] | 90% | 100% | 90% | 90% | 80% | 90% | 80% | – | 90% | 90% | 90% | 80% | 90% |
| CCCS(=O)(=O)NC(=O)C1C=CC(NC(=O)C2(C(F)(F)F)CC(c3cc(F)cc(F)c3)=NO2)C1 (mixture of isomers) [II-33] | – | 100% | 80% | 90% | 80% | 80% | 90% | – | 80% | 90% | 80% | 90% | 90% |
| COC(=O)C(C)(C)NC(=O)C1C=CC(NC(=O)C2(C(F)(F)F)CC(c3cc(F)cc(F)c3)=NO2)C1 (mixture of isomers) [II-36] | 90% | 100% | – | 90% | – | – | 90% | 90% | – | 90% | 80% | 80% | 90% |
| COC(=O)C(NC(=O)C1C=CC(NC(=O)C2(C(F)(F)F)CC(c3cc(F)cc(F)c3)=NO2)C1)C(C)C (mixture of isomers) [II-37] | 80% | 100% | – | 100% | 80% | 80% | 90% | – | 90% | 90% | 90% | 90% | 100% |
| COC(=O)[C@@H]1C=C[C@H](NC(=O)C2(C(F)(F)F)CC(c3cc(F)cc(C#N)c3)=NO2)C1 (single isomer, unassigned) [Example I-097] | 100% | 90% | 90% | 100% | 90% | – | 80% | 80% | 80% | 80% | 80% | 90% | 80% |
| C=CC1(C(=O)NC2C=CC(C(=O)O)C2)CC(c2cc(F)cc(F)c2)=NO1 (stereo not shown) [Example I-014] | 90% | 90% | 90% | 90% | 80% | – | 90% | – | 90% | 90% | 90% | 80% | 80% |
| COCCOC(=O)C1C=CC(NC(=O)C2(C(F)(F)F)CC(c3cc(F)cc(C#N)c3)=NO2)C1 (stereo not shown) [Example I-099] | 90% | 90% | 80% | 100% | 90% | – | 80% | – | 80% | 80% | 80% | 80% | 80% |
| O=C(O)C1=C[C@@H](NC(=O)[C@@]2(C(F)(F)F)CC(c3cc(F)cc(F)c3)=NO2)CC1 [Example V-04] | 100% | – | 80% | 90% | 80% | 80% | 80% | – | 90% | 80% | 80% | 90% | – |
